{"source": "patent US4289776A", "about": "“Xanthine derivatives” (Hoechst Aktiengesellschaft, priority 1973, dated 1981)", "key": {"[1]": {"tested_on": "mouse", "assay": "Toxicity in the mouse (LD50)", "details": "in vivo, ip", "protocol": "(§1) The toxicity was determined as LD50 --range or as LD50 according to Litchfield and Wilcoxon (\"J. Pharmacol. exp. Ther.\" 97 (1949), page 399) in the mouse."}, "[2]": {"assay": "Toxicity in the mouse (LD50)", "details": "in vivo", "protocol": "as §1"}, "[3]": {"tested_on": "cerebral blood circulation", "assay": "Cerebral blood circulation after intraduodenal administration to narcotized cats", "assay_type": "in vivo, cat"}, "[4]": {"tested_on": "bronchospasm against acrotonine", "assay": "Broncholytic effect at the narcotized guinea-pig, bronchospasm by acrotonine (so in the source)", "assay_type": "in vivo", "details": "2 min. i.p.", "protocol": "(§2) 2. Broncholytic effect at the narcotized guinea-pig\n(§3) This test was performed according to H. Konsett and R. Rossler (\"Archiv exp. Path. Pharmak.\" vol. 195 (1940), page 71)."}, "[5]": {"tested_on": "bronchospasm against acetylcholine", "assay": "Broncholytic effect at the narcotized guinea-pig, bronchospasm by acetylcholine", "assay_type": "in vivo", "details": "Cavia porcellus, iv, 2 min, 2 min. i.p.; for change in vivo at 3 mg/kg: 3 mg/kg i.v.; for change in vivo at 10 mg/kg: 10 mg/kg i.v.", "protocol": "as §2, §3"}, "[6]": {"tested_on": "cerebral blood perfusion", "assay": "Cerebral blood perfusion by fluvography at the cat (i.v.)", "assay_type": "in vivo", "protocol": "(§4) Animal tests were carried out with various oxoalkylxanthine derivatives, in which the toxicity in the mouse, the increase of cerebral and muscular blood perfusion at the cat and the fibrinolytic effect in vitro in the Hanging-Clot-test were measured. Furthermore the broncholytic effect of various compounds was tested.\n(§5) 1. Cerebral and muscular blood perfusion by fluvography\n(§6) These tests were performed at the cat according to K. Popendiker, I. Boksay and V. Bollmann (\"Arzneimittel Forschung\" vol. 21 (1971), page 1160).\n(§7) The values obtained in the mentioned test 1 are given as Δλ and as half-life values in Table 2 and the results of tests 2 to 5 are enumerated in Table 3. In Table 2 Δλ is the change of blood perfusion."}, "[7]": {"tested_on": "bronchospasm against histamine", "assay": "Broncholytic effect at the narcotized guinea-pig, bronchospasm by histamine", "assay_type": "in vivo", "details": "for change in vivo at 3 mg/kg: 3 mg/kg i.v.; for change in vivo at 10 mg/kg: 10 mg/kg i.v.", "protocol": "as §2, §3"}, "[8]": {"assay": "Solubility", "assay_type": "physicochemical"}, "[9]": {"tested_on": "muscular blood perfusion", "assay": "Muscular blood perfusion by fluvography at the cat (i.v.)", "assay_type": "in vivo", "protocol": "as §4, §5, §6, §7"}, "[10]": {"tested_on": "human blood", "assay": "Fibrinolytic effect in vitro, Hanging-Clot-test", "assay_type": "biochemical", "details": "for Minimum concentration for complete lysis / Minimum concentration for partial lysis: human blood", "protocol": "This effect was measured by the Hanging-Clot-test according to K. N. von Kaulla (\"Journ. med. Chem.\" vol. 8 (1965), page 164) in using human blood. The incubation time was 24 or 48 hours."}, "[11]": {"tested_on": "isolated trancheal chain", "assay": "Broncholytic effect at the isolated tracheal chain (isoprenaline reaction)", "protocol": "3. Broncholytic effect at the isolated trancheal chain\nThis test was performed according to J. C. Castillo and E. J. de Beer (\"J. Pharm. Ther.\" vol. 90 (1947), page 104)."}, "[12]": {"tested_on": "blood vascular system", "details": "known compounds; cited from earlier work"}, "[13]": {"tested_on": "mouse", "details": "known compounds; cited from earlier work"}, "[14]": {"details": "Cavia porcellus, iv, 2 min, 2 min. i.p."}}, "note": "Read-outs that look alike come from different tables or passages of the source.", "data": [{"compound": "CC(=O)CCCCn1cnc2c1c(=O)[nH]c(=O)n2C", "note": "[Example 11, 3-methyl-7-(5-oxohexyl)-xanthine]", "values": [{"measurement": "Compatibility compared with ethylene-diamine-theophylline", "setting": "[1]", "value": "much more compatible"}, {"measurement": "LD50", "setting": "[2]; ip, mice, intraperitoneally, read-out: LD50 -value for mice", "value": "1000 to 1500", "unit": "mg/kg"}, {"measurement": "Increase in cerebral blood circulation compared with ethylene-diamine-theophylline", "setting": "[3]", "value": "by several times superior"}, {"measurement": "Increase in the cerebral blood circulation", "setting": "[3]", "value": "significant and permanent increase in the cerebral blood circulation"}]}, {"compound": "CCCn1cnc2c1c(=O)n(CCCCC(C)=O)c(=O)n2C", "note": "[Sample 4, 1-(5-Oxohexyl)-3-methyl-7-propyl-xanthine]", "values": [{"measurement": "Change of the bronchospasm in % against acrotonine", "setting": "[4]; 3 mg/kg i.v.", "value": -83, "unit": "%"}, {"measurement": "Change of the bronchospasm in % against acrotonine", "setting": "[4]; 10 mg/kg i.v.", "value": -93, "unit": "%"}, {"measurement": "change in vivo at 3 mg/kg", "setting": "[5]", "value": -40, "unit": "%"}, {"measurement": "change in vivo at 10 mg/kg", "setting": "[5]", "value": -75, "unit": "%"}, {"measurement": "Cerebral blood perfusion half-life", "setting": "[6]; 1 mg/kg i.v.", "value": 4.0, "unit": "min"}, {"measurement": "Cerebral blood perfusion Δλ (change of blood perfusion)", "setting": "[6]; 1 mg/kg i.v.", "value": "+4.33"}, {"measurement": "Cerebral blood perfusion half-life", "setting": "[6]; 2 mg/kg i.v.", "value": 5.8, "unit": "min"}, {"measurement": "Cerebral blood perfusion Δλ (change of blood perfusion)", "setting": "[6]; 2 mg/kg i.v.", "value": "+6.33"}, {"measurement": "Cerebral blood perfusion half-life", "setting": "[6]; 5 mg/kg i.v.", "value": 14.7, "unit": "min"}, {"measurement": "Cerebral blood perfusion Δλ (change of blood perfusion)", "setting": "[6]; 5 mg/kg i.v.", "value": "+13.00"}, {"measurement": "Cerebral blood perfusion compared with sample 8 (in words)", "setting": "[6]; i.v.", "value": "longer cerebral blood perfusion"}, {"measurement": "Cerebral blood perfusion relative to comparison sample 8", "setting": "[6]; i.v., all dose values, corresponding dosages", "value": "more than 10 times"}, {"measurement": "change in vivo at 3 mg/kg", "setting": "[7]; [14]", "value": -75, "unit": "%"}, {"measurement": "change in vivo at 10 mg/kg", "setting": "[7]; [14]", "value": -86, "unit": "%"}, {"measurement": "Broncholytic effect against histamine compared with sample 8", "setting": "[7]; guinea pig, in vivo", "value": "improved broncholytic effect against histamine"}, {"measurement": "Solubility in dimethyl sulphoxide", "setting": "[8]", "value": "over 10%"}, {"measurement": "Solubility in ethanol", "setting": "[8]", "value": "over 10%"}, {"measurement": "solubility", "setting": "[8]; water, 25° C.", "value": "~32", "unit": "mg/mL"}, {"measurement": "LD50", "setting": "[2]; iv, read-out: Toxicity (LD50)", "value": 107, "unit": "mg/kg"}, {"measurement": "LD50", "setting": "[2]; po, per os, read-out: Toxicity (LD50)", "value": 860, "unit": "mg/kg"}, {"measurement": "Muscular blood perfusion half-life", "setting": "[9]; 1 mg/kg i.v.", "value": 3.70, "unit": "min"}, {"measurement": "Muscular blood perfusion Δλ (change of blood perfusion)", "setting": "[9]; 1 mg/kg i.v.", "value": "+0.13"}, {"measurement": "Muscular blood perfusion half-life", "setting": "[9]; 2 mg/kg i.v.", "value": 0.80, "unit": "min"}, {"measurement": "Muscular blood perfusion Δλ (change of blood perfusion)", "setting": "[9]; 2 mg/kg i.v.", "value": "+0.07"}, {"measurement": "Muscular blood perfusion half-life", "setting": "[9]; 5 mg/kg i.v.", "value": 3.70, "unit": "min"}, {"measurement": "Muscular blood perfusion Δλ (change of blood perfusion)", "setting": "[9]; 5 mg/kg i.v.", "value": "+0.08"}, {"measurement": "Muscular blood perfusion compared with sample 8 (in words)", "setting": "[9]; i.v., corresponding dosages", "value": "stronger muscular blood perfusion"}, {"measurement": "Fibrinolytic effect relative to comparison sample 8", "setting": "[10]", "value": "two times as strong"}, {"measurement": "Minimum concentration for complete lysis", "setting": "[10]; 24 hours incubation", "value": 50, "unit": "mmol"}, {"measurement": "Minimum concentration for complete lysis", "setting": "[10]; 48 hours incubation (bracket)", "value": 25, "unit": "mmol"}, {"measurement": "Inhibition of isoprenaline reaction in %", "setting": "[11]; concentration 3 × 10^-5", "value": 94, "unit": "%"}, {"measurement": "Inhibition of isoprenaline reaction in %", "setting": "[11]; concentration 3 × 10^-6", "value": 2, "unit": "%"}, {"measurement": "Inhibition of isoprenaline reaction in %", "setting": "[11]; concentration 10^-4", "value": 100, "unit": "%"}, {"measurement": "Inhibition of isoprenaline reaction in %", "setting": "[11]; concentration 10^-5", "value": 20, "unit": "%"}]}, {"compound": "CC(=O)CCCCn1c(=O)c2c(ncn2C)n(C)c1=O", "note": "[Sample 8, 1-(5-Oxohexyl)-3,7-dimethylxanthine, reference compound]", "values": [{"measurement": "change in vivo at 3 mg/kg", "setting": "[5]", "value": -15, "unit": "%"}, {"measurement": "change in vivo at 10 mg/kg", "setting": "[5]", "value": -41, "unit": "%"}, {"measurement": "change in vivo at 20 mg/kg", "setting": "[5]; 20 mg/kg i.v.", "value": -72, "unit": "%"}, {"measurement": "Cerebral blood perfusion half-life", "setting": "[6]; 1 mg/kg i.v.", "value": 0.9, "unit": "min"}, {"measurement": "Cerebral blood perfusion Δλ (change of blood perfusion)", "setting": "[6]; 1 mg/kg i.v.", "value": "+0.44"}, {"measurement": "Cerebral blood perfusion half-life", "setting": "[6]; 5 mg/kg i.v.", "value": 2.4, "unit": "min"}, {"measurement": "Cerebral blood perfusion Δλ (change of blood perfusion)", "setting": "[6]; 5 mg/kg i.v.", "value": "+0.86"}, {"measurement": "Cerebral blood perfusion half-life", "setting": "[6]; 10 mg/kg i.v.", "value": 8.6, "unit": "min"}, {"measurement": "Cerebral blood perfusion Δλ (change of blood perfusion)", "setting": "[6]; 10 mg/kg i.v.", "value": "+1.15"}, {"measurement": "change in vivo at 3 mg/kg", "setting": "[7]; [14]", "value": -4, "unit": "%"}, {"measurement": "change in vivo at 5 mg/kg", "setting": "[7]; Cavia porcellus, iv, 2 min, 5 mg/kg i.v., 2 min. i.p.", "value": -94, "unit": "%"}, {"measurement": "change in vivo at 10 mg/kg", "setting": "[7]; [14]", "value": -83, "unit": "%"}, {"measurement": "change in vivo at 20 mg/kg", "setting": "[7]; Cavia porcellus, iv, 2 min, 20 mg/kg i.v., 2 min. i.p.", "value": -100, "unit": "%"}, {"measurement": "Vascular dilatory action", "setting": "[12]", "value": "vaso-dilatory effect"}, {"measurement": "Toxicity", "setting": "[13]", "value": "low toxicity"}, {"measurement": "Muscular blood perfusion half-life", "setting": "[9]; 1 mg/kg i.v.", "value": 1.10, "unit": "min"}, {"measurement": "Muscular blood perfusion Δλ (change of blood perfusion)", "setting": "[9]; 1 mg/kg i.v.", "value": "+0.02"}, {"measurement": "Muscular blood perfusion half-life", "setting": "[9]; 5 mg/kg i.v.", "value": 3.30, "unit": "min"}, {"measurement": "Muscular blood perfusion Δλ (change of blood perfusion)", "setting": "[9]; 5 mg/kg i.v.", "value": "+0.03"}, {"measurement": "Muscular blood perfusion half-life", "setting": "[9]; 10 mg/kg i.v.", "value": 2.80, "unit": "min"}, {"measurement": "Muscular blood perfusion Δλ (change of blood perfusion)", "setting": "[9]; 10 mg/kg i.v.", "value": "+0.15"}, {"measurement": "Muscular blood perfusion half-life", "setting": "[9]; 20 mg/kg i.v.", "value": "> 15", "unit": "min"}, {"measurement": "Muscular blood perfusion Δλ (change of blood perfusion)", "setting": "[9]; 20 mg/kg i.v.", "value": "+1.38"}, {"measurement": "Minimum concentration for partial lysis", "setting": "[10]; 24 hours incubation", "value": 100, "unit": "mmol"}, {"measurement": "Minimum concentration for partial lysis", "setting": "[10]; 48 hours incubation (bracket)", "value": 50, "unit": "mmol"}, {"measurement": "Inhibition of isoprenaline reaction in %", "setting": "[11]; concentration 3 × 10^-5", "value": 30, "unit": "%"}, {"measurement": "Inhibition of isoprenaline reaction in %", "setting": "[11]; concentration 3 × 10^-6", "value": 0, "unit": "%"}, {"measurement": "Inhibition of isoprenaline reaction in %", "setting": "[11]; concentration 10^-4", "value": 89, "unit": "%"}, {"measurement": "Inhibition of isoprenaline reaction in %", "setting": "[11]; concentration 10^-5", "value": 5, "unit": "%"}]}]}
